Among the data in ChEMBL document CHEMBL1770054, “Enediol mimics as inhibitors of the D-arabinose 5-phosphate isomerase (KdsD) from Francisella tularensis” (Bioorg Med Chem Lett, 2011) are IC50, Ki and Activity values, retold here.

“And” between values parts separate entries of the source, which are not always exact repeats. Identical values can stand only once.

Series [1] concerns the target T1, Arabinose 5-phosphate isomerase KdsD (Francisella tularensis subsp. tularensis (strain SCHU S4 / Schu 4), UniProt Q5NGP7).
T1 sequence (Q5NGP7 whole entry): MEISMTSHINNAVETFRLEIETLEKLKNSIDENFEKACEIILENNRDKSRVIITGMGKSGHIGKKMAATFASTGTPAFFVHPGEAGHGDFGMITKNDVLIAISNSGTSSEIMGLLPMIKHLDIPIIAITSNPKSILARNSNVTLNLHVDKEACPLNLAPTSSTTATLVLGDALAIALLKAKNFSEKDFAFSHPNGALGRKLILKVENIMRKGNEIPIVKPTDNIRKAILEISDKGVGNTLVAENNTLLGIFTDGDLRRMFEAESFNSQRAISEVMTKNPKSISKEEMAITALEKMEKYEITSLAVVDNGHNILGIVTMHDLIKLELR

For series [2], the target named is T2, Ribose-5-phosphate isomerase B (Mycobacterium tuberculosis, UniProt P9WKD7).
T2 sequence (P9WKD7 whole entry): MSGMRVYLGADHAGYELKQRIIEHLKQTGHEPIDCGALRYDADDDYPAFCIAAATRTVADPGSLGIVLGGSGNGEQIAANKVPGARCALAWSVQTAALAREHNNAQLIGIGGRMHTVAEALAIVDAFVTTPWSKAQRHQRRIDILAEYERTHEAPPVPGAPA
Nature of the series: Inhibition of Mycobacterium tuberculosis rpiB.

Series [3] is described as follows: Inhibition of Escherichia coli arabinose phosphate isomerase.
The target of series [4] is Glucose-6-phosphate isomerase (Oryctolagus cuniculus, UniProt Q9N1E2). Nature of the series: Inhibition of rabbit cytosolic phosphoglucose isomerase.
Series [5] addresses Triosephosphate isomerase (Homo sapiens, UniProt P60174). Nature of the series: Inhibition of Triosephosphate isomerase.
A short description of series [6]: Inhibition of xylose isomerase.
The next series deals with Trypanosoma brucei. Kind of series: Antiparasitic activity against Trypanosoma brucei infected in rat L6 cells. The class given is functional.
For another series, the system named is L6. Nature of the series: Cytotoxicity against rat L6 cells. The class given is cell-based.

Chain of Triosephosphate isomerase (P60174 whole entry): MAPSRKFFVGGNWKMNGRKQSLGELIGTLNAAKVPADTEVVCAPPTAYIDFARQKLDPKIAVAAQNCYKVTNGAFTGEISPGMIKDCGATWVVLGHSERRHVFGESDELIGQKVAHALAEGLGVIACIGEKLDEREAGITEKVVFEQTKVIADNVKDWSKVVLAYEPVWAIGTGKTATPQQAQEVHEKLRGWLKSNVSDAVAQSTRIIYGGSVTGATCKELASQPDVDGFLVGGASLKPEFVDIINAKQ

The term IC50 denotes the concentration needed to halve the response being measured. A high value points to lower potency. For the molecule `CC1(C)O[C@H](COP(=O)(O)O)[C@H](C(=O)NO)O1`, the midpoint of inhibition in series [1], the IC50, lay at 3000 µM.

The Ki is the dissociation constant of the complex between target and ligand, obtained from inhibition or displacement. The low end stands for tighter binding, the high end for weaker binding. Consider `O=C(NO)[C@H](O)[C@H](O)COP(=O)(O)O`, for which, in series [1], the IC50 came out at 35 µM. In addition, the Ki in series [2] was 400 µM and 57 µM.

In series [1], `NC(=O)[C@H](O)[C@H](O)COP(=O)(O)O` showed an IC50 of 10 µM. In series [2], this molecule gave a Ki above 30000 µM. `O=C(O)[C@H](O)[C@H](O)COP(=O)(O)O`: the IC50 in series [3] worked out at 220 µM. For `O=C(NO)[C@@H](O)[C@H](O)[C@H](O)COP(=O)(O)O`, the Ki in series [4] was found to be 0.1 µM. As to `O=C(COP(=O)(O)O)NO` [PHOSPHOGLYCOLOHYDROXAMATE], the Ki in series [5] was 4 µM. Take `O=C(NO)[C@H](O)[C@H](O)CO`: in series [6], the affinity, expressed as Ki, was 0.1 µM. In series [1], `CC(=O)O[C@H](COP(=O)(O)O)[C@@H](OC(C)=O)C(=O)NO` came in with an IC50 of 7 µM. The Activity with Trypanosoma brucei and with L6 was 229 µM in each case.
